Patent publication US4485110A, “β-Lactam compounds, and use” (priority 1980, dated 1984)
Like-named read-outs stand apart in the source and are kept apart here.

What was measured:
Assay in all cases: Antibacterial activity, broth MIC
Assay type in all cases: cell-based
P. morganii I 580 = details: Morganella morganii, I580, compound alone
Description: (§1) The antibacterial activity of a number of compounds described in the foregoing Examples against a number of organisms is shown in Tables 1 and 10.

S. faecalis I = details: Enterococcus faecalis, read-out: Broth MIC
Description: as §1

C. freundii E 8 = details: Citrobacter freundii
Description: as §1

E. coli ESS = details: Escherichia coli, read-out: Broth MIC
Description: as §1

S. pneumoniae CN 33 = details: Streptococcus pneumoniae, CN33, compound alone
Description: as §1

S. pyogenes CN 10 = details: Streptococcus pyogenes, CN10, compound alone
Description: as §1

E. coli 0111 = details: Escherichia coli, compound alone
Description: as §1

P. aeruginosa A = details: Pseudomonas aeruginosa, compound alone
Description: as §1

P. rettgeri WM 16 = details: Providencia rettgeri, WM16, compound alone
Description: as §1

S. marcescens US 20 = details: Serratia marcescens
Description: as §1

P. vulgaris WO 91 = details: Proteus vulgaris, WO91, compound alone
Description: as §1

B. subtilis A = details: Bacillus subtilis, compound alone
Description: as §1

S. aureus Oxford = details: Staphylococcus aureus, compound alone
Description: as §1

P. mirabilis 977 = details: Proteus mirabilis, compound alone
Description: as §1

E. cloacae N 1 = details: Enterobacter cloacae, N1, compound alone
Description: as §1

E. coli JT 39 R^+ = details: Escherichia coli, read-out: Broth MIC
Description: as §1

S. aureus 1517 = details: Staphylococcus aureus, compound alone
Description: as §1

S. sonnei MB 11967 = details: Shigella sonnei, MB11967, compound alone
Description: as §1

K. aerogenes A = details: Klebsiella aerogenes, read-out: Broth MIC
Description: as §1

S. typhimurium CT 10 = details: Salmonella enterica, compound alone
Description: as §1

S. aureus Russell = details: Staphylococcus aureus, compound alone
Description: as §1

[1] = E8, compound alone, broth, read-out: Broth MIC
[2] = US20, compound alone, broth, read-out: Broth MIC

Row | SMILES | MIC (P. morganii I 580) | MIC (S. faecalis I; compound alone, broth) | MIC (C. freundii E 8; [1]) | MIC (E. coli ESS; compound alone, broth) | MIC (S. pyogenes CN 10) | MIC (E. coli 0111) | MIC (P. aeruginosa A) | MIC (P. rettgeri WM 16) | MIC (S. marcescens US 20; [2]) | MIC (P. vulgaris WO 91) | MIC (B. subtilis A) | MIC (S. aureus Oxford) | MIC (P. mirabilis 977) | MIC (E. cloacae N 1) | MIC (E. coli JT 39 R^+; compound alone, broth) | MIC (S. aureus 1517) | MIC (S. sonnei MB 11967) | MIC (K. aerogenes A; compound alone, broth) | MIC (S. typhimurium CT 10) | MIC (S. aureus Russell) | also measured
1 | C/C=C1\C(=O)N2C(C(=O)O)=C(SCC)SC12 (racemic) [Compound 29, (5RS)-Sodium (E)-6-Ethylidene-2-ethylthiopenem-3-carboxylate] | 31 µg/mL | 250 µg/mL | 62 µg/mL | 2 µg/mL | 4 µg/mL | 31 µg/mL | > 500 µg/mL | 62 µg/mL | 62 µg/mL | 62 µg/mL | 2 µg/mL | 2 µg/mL | 125 µg/mL | 31 µg/mL | 31 µg/mL | 16 µg/mL | 62 µg/mL | 16 µg/mL | 62 µg/mL |  | MIC (S. pneumoniae CN 33): 1 µg/mL
2 | C/C=C1/C(=O)N2C(C(=O)O)=CSC12 (racemic) [Compound 40, (5RS)-Sodium(Z)-6-Ethylidenepenem-3-carboxylate] | 250 µg/mL | > 250 µg/mL | 125 µg/mL | 16 µg/mL | 8 µg/mL | 62 µg/mL | 250 µg/mL | 125 µg/mL | 250 µg/mL | 250 µg/mL | 31 µg/mL | 8 µg/mL | 250 µg/mL | 125 µg/mL | 62 µg/mL | 125 µg/mL | 62 µg/mL | 62 µg/mL | 62 µg/mL | 16 µg/mL | MIC (S. pneumoniae CN 33): 31 µg/mL
3 | C/C=C1/C(=O)N2C(C(=O)O)=C(CCC)SC12 (racemic) [Compound 49, (5RS)-Sodium(Z)-6-Ethylidene-2-n-propylpenem-3-carboxylate] | 31 µg/mL |  |  | 1 µg/mL |  | 125 µg/mL | > 250 µg/mL | 62 µg/mL |  | 62 µg/mL | 1 µg/mL | 1 µg/mL | 62 µg/mL | 62 µg/mL | 62 µg/mL | 62 µg/mL | 62 µg/mL | 31 µg/mL | 62 µg/mL | 2 µg/mL | MIC (S. faecalis I): 125 µg/mL; MIC (C. freundii E 8; E8, read-out: Broth MIC): 125 µg/mL; MIC (S. pneumoniae CN 33): ≤ 0.2 µg/mL; MIC (S. marcescens US 20; US20, read-out: Broth MIC): 125 µg/mL
4 | CC=C1C(=O)N2C(C(=O)O)=C(SCCNC(C)=O)SC12 (racemic) [Compound 59, (5RS)-Sodium 2-(2-Acetamidoethylthio)-6-ethylidenepenem-3-carboxylate] | 25 µg/mL | 100 µg/mL | 25 µg/mL | 3.1 µg/mL | ≤ 0.1 µg/mL | 25 µg/mL | > 100 µg/mL | 25 µg/mL | 25 µg/mL | 25 µg/mL | 3.1 µg/mL | 3.1 µg/mL | 25 µg/mL | 25 µg/mL |  | > 100 µg/mL | 25 µg/mL |  | 12.5 µg/mL | 3.1 µg/mL | MIC (S. pneumoniae CN 33): 0.2 µg/mL; MIC (E. coli JT 39 R^+): 12.5 µg/mL; MIC (K. aerogenes A): 12.5 µg/mL
5 | C/C=C1/C(=O)N2C(C(=O)O)=C(C)SC12 (racemic) [Compound 76, (5RS)-Sodium (Z)-Ethylidene-2-methylpenem-3-carboxylate] | 100 µg/mL | > 100 µg/mL | 100 µg/mL | 6.2 µg/mL |  | 100 µg/mL | 100 µg/mL | > 100 µg/mL | > 100 µg/mL | > 100 µg/mL | 25 µg/mL | 12.5 µg/mL | 100 µg/mL | > 100 µg/mL | 100 µg/mL | 50 µg/mL | 100 µg/mL | > 100 µg/mL | 100 µg/mL | 6.2 µg/mL | 
6 | CC=C1C(=O)N2C(C(=O)O)=C(Sc3ccccn3)SC12 (racemic) [Compound 99, (5RS)-Sodium 6-Ethylidene-2-(2-pyridylthio)penem-3-carboxylate] | 50 µg/mL | > 100 µg/mL | 100 µg/mL | 3.1 µg/mL | 1.6 µg/mL | 100 µg/mL | > 100 µg/mL | 25 µg/mL | 50 µg/mL | 50 µg/mL | 6.2 µg/mL | 12.5 µg/mL | 100 µg/mL | 25 µg/mL | 50 µg/mL | 100 µg/mL | 50 µg/mL | 50 µg/mL | 50 µg/mL | 6.2 µg/mL | 
7 | CC=C1C(=O)N2C(C(=O)O)=C(SCCN)SC12 (racemic) [Compound 101, (5RS)-Sodium 2-(2-aminoethylthio)-6-ethylidenepenem-3-carboxylate] | > 100 µg/mL | > 100 µg/mL | 100 µg/mL | 12.5 µg/mL | 3.1 µg/mL | 100 µg/mL | > 100 µg/mL | 100 µg/mL | > 100 µg/mL | 100 µg/mL | 12.5 µg/mL | 3.1 µg/mL | > 100 µg/mL | 100 µg/mL | 100 µg/mL | > 100 µg/mL | 100 µg/mL | 100 µg/mL | 100 µg/mL | 3.1 µg/mL | 
8 | CC=C1C(=O)N2C(C(=O)O)=C([S+]([O-])CC)SC12 (racemic) [Compound 103, (5RS)-Sodium 6-Ethylidene-2-ethylsulphinylpenem-3-carboxylate] | > 100 µg/mL | > 100 µg/mL | > 100 µg/mL | 100 µg/mL | 12.5 µg/mL | > 100 µg/mL | > 100 µg/mL | > 100 µg/mL | > 100 µg/mL | > 100 µg/mL | 25 µg/mL | 50 µg/mL | 100 µg/mL | > 100 µg/mL | > 100 µg/mL | > 100 µg/mL | > 100 µg/mL | > 100 µg/mL | > 100 µg/mL | > 100 µg/mL | MIC (S. pneumoniae CN 33): 25 µg/mL
9 | CCSC1=C(C(=O)O)N2C(=O)C(=C(C)C)C2S1 (racemic) [Compound 129, (5RS)-Sodium 2-Ethylthio-6-isopropylidenepenem-3-carboxylate] |  | 50 µg/mL |  |  | 0.4 µg/mL |  |  |  |  |  | 25 µg/mL | 12.5 µg/mL |  |  |  |  |  |  |  | 12.5 µg/mL | MIC (E. coli ESS): 12.5 µg/mL; MIC (S. pneumoniae CN 33): 1.6 µg/mL
10 | CCSC1=C(C(=O)O)N2C(=O)C(=Cc3ccccc3)C2S1 (stereo not drawn) [Compound 118, (5RS)-Sodium (Z)-6-Benzylidene-2-ethylthiopenem-3-carboxylate] | > 100 µg/mL | > 100 µg/mL | > 100 µg/mL |  | 1.6 µg/mL | > 100 µg/mL | > 100 µg/mL | > 100 µg/mL | > 100 µg/mL | > 100 µg/mL | 12.5 µg/mL | 1.6 µg/mL | > 100 µg/mL | > 100 µg/mL | > 100 µg/mL | 100 µg/mL | > 100 µg/mL | > 100 µg/mL | > 100 µg/mL | 3.1 µg/mL | MIC (E. coli ESS): > 1.6 µg/mL; MIC (S. pneumoniae CN 33): 1.6 µg/mL
